This note sets out measurements from patent publication US10758534B2 (Vertex Pharmaceuticals Incorporated, priority 2014, dated 2020).

One assay deals with T1, F508del (Homo sapiens, UniProt P13569, DEL508-508).
T1 construct: expressed in transfected cells
T1 sequence (P13569 with tags, fused parts or gaps DEL508-508): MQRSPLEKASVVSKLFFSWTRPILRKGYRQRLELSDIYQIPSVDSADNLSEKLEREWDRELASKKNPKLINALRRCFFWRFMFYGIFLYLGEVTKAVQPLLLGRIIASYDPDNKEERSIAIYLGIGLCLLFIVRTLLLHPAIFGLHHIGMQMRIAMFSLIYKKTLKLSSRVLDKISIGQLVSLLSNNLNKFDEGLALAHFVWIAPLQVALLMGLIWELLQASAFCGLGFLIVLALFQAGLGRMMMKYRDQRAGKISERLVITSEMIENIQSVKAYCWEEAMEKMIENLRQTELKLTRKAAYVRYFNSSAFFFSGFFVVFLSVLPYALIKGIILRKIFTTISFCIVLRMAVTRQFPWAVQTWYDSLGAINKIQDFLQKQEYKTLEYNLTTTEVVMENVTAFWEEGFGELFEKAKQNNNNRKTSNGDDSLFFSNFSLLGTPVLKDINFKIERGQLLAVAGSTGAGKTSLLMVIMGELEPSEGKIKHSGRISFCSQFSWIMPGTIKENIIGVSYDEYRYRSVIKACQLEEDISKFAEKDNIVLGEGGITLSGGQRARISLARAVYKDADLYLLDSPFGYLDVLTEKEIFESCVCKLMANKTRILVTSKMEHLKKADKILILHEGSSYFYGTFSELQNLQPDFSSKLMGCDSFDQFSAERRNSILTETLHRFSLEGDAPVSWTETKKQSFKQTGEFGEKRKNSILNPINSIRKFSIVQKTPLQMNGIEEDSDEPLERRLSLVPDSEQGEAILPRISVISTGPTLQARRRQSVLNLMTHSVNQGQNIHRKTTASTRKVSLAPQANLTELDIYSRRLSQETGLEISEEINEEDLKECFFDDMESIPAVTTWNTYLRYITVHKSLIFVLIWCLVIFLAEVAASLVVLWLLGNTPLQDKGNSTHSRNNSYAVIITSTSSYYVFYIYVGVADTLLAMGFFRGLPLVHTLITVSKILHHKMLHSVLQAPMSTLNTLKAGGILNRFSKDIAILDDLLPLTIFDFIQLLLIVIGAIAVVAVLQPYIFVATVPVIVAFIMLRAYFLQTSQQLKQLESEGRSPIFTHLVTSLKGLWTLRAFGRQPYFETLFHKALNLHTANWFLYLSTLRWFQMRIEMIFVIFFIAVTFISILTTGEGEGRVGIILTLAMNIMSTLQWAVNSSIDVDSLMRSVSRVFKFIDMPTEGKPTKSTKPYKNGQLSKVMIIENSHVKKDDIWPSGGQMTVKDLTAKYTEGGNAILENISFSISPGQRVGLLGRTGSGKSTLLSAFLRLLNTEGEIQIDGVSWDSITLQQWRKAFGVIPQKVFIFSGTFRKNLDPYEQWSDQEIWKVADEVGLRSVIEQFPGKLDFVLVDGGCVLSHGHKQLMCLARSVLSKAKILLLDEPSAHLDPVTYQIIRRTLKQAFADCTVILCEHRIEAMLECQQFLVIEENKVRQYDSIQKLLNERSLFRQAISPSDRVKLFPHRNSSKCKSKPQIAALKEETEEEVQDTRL
Kind of assay: Protocol 2: FRET membrane potential optical assay (VIPR), identification of correction compounds. Format: cell-based. The settings on record: F508del CFTR modulator activity; compounds of Table 1. A digest of the protocol:
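Correction of the F508del trafficking defect is scored as forskolin (10 μM)/genistein (20 μM)-stimulated Cl^− efflux in NIH3T3 mouse fibroblasts after a 16 hr, 37° C. compound exposure. Depolarization was followed optically using voltage-sensing FRET dyes.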
Take `CC(C)COc1cc(F)cc(-c2ccc(C(=O)NS(=O)(=O)c3cccc(N)n3)c(N3CCC(C)C(C)C3)n2)c1` (single isomer, unassigned) [Compound 2532, N-[(6-amino-2-pyridyl)sulfonyl]-2-(3,4-dimethyl-1-piperidyl)-6-(3-fluoro-5-isobutoxy-phenyl)pyridine-3-carboxamide]: the EC30 (commonly the point of the concentration-response curve where the effect stands at 30%) is listed as “+++ (“+++” means <3 uM)”.

Still in this assay, the particulars now being: F508del CFTR modulator activity; compounds of Table 1; read-out: EC30.
Turning to `COc1ncccc1-c1ccc(C(=O)NS(=O)(=O)c2ccc[nH]c2=O)c(N2C[C@@H](C)CC2(C)C)n1` [Compound 2454, 6-(2-methoxy-3-pyridyl)-N-[(2-oxo-1H-pyridin-3-yl)sulfonyl]-2-[(4S)-2,2,4-trimethylpyrrolidin-1-yl]pyridine-3-carboxamide], the EC30 fell in the range of 3 to 10 µM.

For `CC1CN(c2ncccc2C(=O)NS(=O)(=O)c2cccc(Nc3ccc(F)cc3)n2)C(C)(C)C1` (centres unmarked) [Compound 2102, N—[[6-(4-fluoroanilino)-2-pyridyl]sulfonyl]-2-(2,2,4-trimethylpyrrolidin-1-yl)pyridine-3-carboxamide], the EC30 was below 3 µM.

`CCOCCNc1cccc(S(=O)(=O)NC(=O)c2cccnc2N2CC(C)CC2(C)C)n1` (centres unmarked) [Compound 2354, N—[[6-(2-ethoxyethylamino)-2-pyridyl]sulfonyl]-2-(2,2,4-trimethylpyrrolidin-1-yl)pyridine-3-carboxamide]: the EC30 was in the range of 3 to 10 µM.

With `COc1cc(F)ccc1-c1ccc(C(=O)NS(=O)(=O)c2ccc[nH]c2=O)c(N2C[C@@H](C)CC2(C)C)n1` [Compound 2356, 6-(4-fluoro-2-methoxy-phenyl)-N-[(2-oxo-1H-pyridin-3-yl)sulfonyl]-2-[(4S)-2,2,4-trimethylpyrrolidin-1-yl]pyridine-3-carboxamide], the EC30 is below 3 µM.

For `CC(C)Oc1ccccc1-c1ccc(C(=O)NS(=O)(=O)c2cccnc2N)c(N2C[C@@H](C)CC2(C)C)n1` [Compound 2623, N-[(2-amino-3-pyridyl)sulfonyl]-6-(2-isopropoxyphenyl)-2-[(4S)-2,2,4-trimethylpyrrolidin-1-yl]pyridine-3-carboxamide], the EC30 was 3 to 10 µM.

For the molecule `C[C@@H]1CN(c2nc(C(C)(C)C)c(C(O)C(O)C3CCCCC3)cc2C(=O)NS(=O)(=O)c2cccc(N)n2)C(C)(C)C1` (some centres unmarked) [Compound 2475], the EC30 is below 3 µM.

With `CC(C)COc1cc(F)cc(-c2ccc(C(=O)NS(=O)(=O)c3cccc(N)n3)c(N3C[C@H](C(F)(F)F)CC3(C)C)n2)c1` (single isomer, unassigned) [Compound 2271, N-[(6-amino-2-pyridyl)sulfonyl]-2-(2,2-dimethyl-4-(trifluoromethyl)pyrrolidin-1-yl)-6-(3-fluoro-5-isobutoxy-phenyl)pyridine-3-carboxamide], the EC30 was below 3 µM.

For the molecule `C[C@@H]1CN(c2nc(C(C)(C)C)c(C(O)C(O)C3CCCC3)cc2C(=O)NS(=O)(=O)c2cccc(N)n2)C(C)(C)C1` (single isomer, unassigned) [Compound 2661], the EC30 is below 3 µM.

Regarding `C[C@@H]1CN(c2nc(-c3ccc4cc[nH]c4c3)ccc2C(=O)NS(=O)(=O)c2cccnc2N)C(C)(C)C1` [Compound 2054, N-[(2-amino-3-pyridyl)sulfonyl]-6-(1H-indol-6-yl)-2-[(4S)-2,2,4-trimethylpyrrolidin-1-yl]pyridine-3-carboxamide], the EC30 is below 3 µM.

As to `CCOC(=O)N1CCC(Nc2cccc(S(=O)(=O)NC(=O)c3cccnc3N3CC(C)CC3(C)C)n2)CC1` (centres unmarked) [Compound 2253, ethyl 4-[[6-[[2-(2,2,4-trimethylpyrrolidin-1-yl)pyridine-3-carbonyl]sulfamoyl]-2-pyridyl]amino]piperidine-1-carboxylate], the EC30 lay within 3 to 10 µM.

Take `CC1CN(c2ncccc2C(=O)NS(=O)(=O)c2cccc(Oc3ccc4[nH]ccc4c3)n2)C(C)(C)C1` (centres unmarked) [Compound 2003, N—[[6-(1H-indol-5-yloxy)-2-pyridyl]sulfonyl]-2-(2,2,4-trimethylpyrrolidin-1-yl)pyridine-3-carboxamide]: the EC30 was below 3 µM.

The same assay, now with this note: Table 3; compounds of Table 1 as modulators of CFTR activity; protocol not stated.
Turning to `Cc1cccc(C)c1Cn1nc(-c2ccc(N3CCCCC3)nc2)cc1C(=O)NS(=O)(=O)c1ccccc1` [Compound 329, N-(benzenesulfonyl)-2-[(2,6-dimethylphenyl)methyl]-5-[6-(1-piperidyl)-3-pyridyl]pyrazole-3-carboxamide], the EC30 result was “+++ (“+++” means <3 uM)”.

Regarding `Cc1ccc(-c2nc(C(C)(C)C)ccc2C(=O)NS(=O)(=O)c2cccc(N)c2)cc1F` [Compound 349, N-(3-aminophenyl)sulfonyl-6-tert-butyl-2-(3-fluoro-4-methyl-phenyl)pyridine-3-carboxamide], the EC30 entry is “++ (“++” means between 3 uM and 10 uM)”.

With `Cc1ccc(-c2nc(C(C)(C)C)ccc2C(=O)NS(=O)(=O)c2cccc(N)c2)c(C)c1` [Compound 5, N-(3-aminophenyl)sulfonyl-6-tert-butyl-2-(2,4-dimethylphenyl)pyridine-3-carboxamide], the EC30 entry is “++ (“++” means between 3 uM and 10 uM)”.

For `Cc1cccc(C)c1Cn1nc(-c2cccc(C(F)(F)F)c2)cc1C(=O)NS(=O)(=O)c1ccccc1` [Compound 220, N-(benzenesulfonyl)-2-[(2,6-dimethylphenyl)methyl]-5-[3-(trifluoromethyl)phenyl]pyrazole-3-carboxamide], the EC30 entry is recorded as “+++ (“+++” means <3 uM)”.

As for `COc1ccccc1S(=O)(=O)NC(=O)C1c2ccccc2CN1Cc1c(C)cc(C)cc1C` (centres unmarked) [Compound 79, N-(2-methoxyphenyl)sulfonyl-2-[(2,4,6-trimethylphenyl)methyl]isoindoline-1-carboxamide], the EC30 entry is “++ (“++” means between 3 uM and 10 uM)”.

As for `COC[C@@H]1CCCN1c1nc(-c2cc(F)cc(OCC(C)C)c2)ccc1C(=O)NS(=O)(=O)c1cccc(N)n1` [Compound 719, N-[(6-amino-2-pyridyl)sulfonyl]-6-(3-fluoro-5-isobutoxy-phenyl)-2-[(2S)-2-(methoxymethyl)pyrrolidin-1-yl]pyridine-3-carboxamide], the EC30 entry was “+++ (“+++” means <3 uM)”.

On to `Cc1cccc(C)c1Cn1nc(C(C)(C)C)cc1C(=O)NS(=O)(=O)c1cccc2[nH]ncc12` [Compound 86, 5-tert-butyl-2-[(2,6-dimethylphenyl)methyl]-N-(1H-indazol-4-ylsulfonyl)pyrazole-3-carboxamide], for which the EC30 entry was “++ (“++” means between 3 uM and 10 uM)”.

For the molecule `Cc1cc(C)c(Cn2c(C(=O)NS(=O)(=O)c3ccccc3)cc3ccc(Cl)cc32)c(C)c1` [Compound 10, N-(benzenesulfonyl)-6-chloro-1-[(2,4,6-trimethylphenyl)methyl]indole-2-carboxamide], the EC30 entry is “+++ (“+++” means <3 uM)”.

On to `COc1ccnc2c1cc(C(=O)NS(=O)(=O)c1cccc(N)n1)n2Cc1c(C)cc(C)cc1C` [Compound 539, N-[(6-amino-2-pyridyl)sulfonyl]-4-methoxy-1-[(2,4,6-trimethylphenyl)methyl]pyrrolo[2,3-b]pyridine-2-carboxamide], for which the EC30 entry is reported as “+ (“+” means greater than 10 uM)”.

As for `Cc1cc(C)c(Cn2c(C(=O)NS(=O)(=O)c3ccccc3)cc3cccc(C)c32)c(C)c1` [Compound 354, N-(benzenesulfonyl)-7-methyl-1-[(2,4,6-trimethylphenyl)methyl]indole-2-carboxamide], the EC30 entry is given as “+++ (“+++” means <3 uM)”.

Consider `COCC1CCCN(c2nc(-c3cc(F)cc(OCC(C)C)c3)ccc2C(=O)NS(=O)(=O)c2cccc(N)n2)C1` (centres unmarked) [Compound 419, N-[(6-amino-2-pyridyl)sulfonyl]-6-(3-fluoro-5-isobutoxy-phenyl)-2-[3-(methoxymethyl)-1-piperidyl]pyridine-3-carboxamide], for which the EC30 result is “+++ (“+++” means <3 uM)”.

As to `COc1ccccc1-c1cc(C(=O)NS(=O)(=O)c2cccc(N)c2)n(C(C)c2ccccc2)n1` (centres unmarked) [Compound 40, N-(3-aminophenyl)sulfonyl-5-(2-methoxyphenyl)-2-(1-phenylethyl)pyrazole-3-carboxamide], the EC30 result was “+++ (“+++” means <3 uM)”.

Take `Cc1cc(C)c(Cn2c(C(=O)NS(=O)(=O)c3cccc(N)c3)cc3ccc(Cl)cc32)c(C)c1` [Compound 9, N-(3-aminophenyl)sulfonyl-6-chloro-1-[(2,4,6-trimethylphenyl)methyl]indole-2-carboxamide]: the EC30 entry was “+++ (“+++” means <3 uM)”.

In the case of `Cc1cc(C)c(Oc2nc(-n3cc(C(F)(F)F)cn3)ccc2C(=O)NS(=O)(=O)c2cccc(N)n2)c(C)c1` [Compound 691, N-[(6-amino-2-pyridyl)sulfonyl]-6-[4-(trifluoromethyl)pyrazol-1-yl]-2-(2,4,6-trimethylphenoxy)pyridine-3-carboxamide], the EC30 entry is listed as “+++ (“+++” means <3 uM)”.

For `Cc1cc(C)c(Oc2nc(-c3ccc(Cl)cc3F)ccc2C(=O)NS(=O)(=O)c2cccc(N)n2)c(C)c1` [Compound 207, N-[(6-amino-2-pyridyl)sulfonyl]-6-(4-chloro-2-fluoro-phenyl)-2-(2,4,6-trimethylphenoxy)pyridine-3-carboxamide], the EC30 entry is “+++ (“+++” means <3 uM)”.

With `CC(C)Oc1cc(F)cc(-c2ccc(C(=O)NS(=O)(=O)c3ccc[nH]c3=O)c(N3[C@H](C)CC[C@@H]3C)n2)c1` [Compound 487, 2-[(2S,5R)-2,5-dimethylpyrrolidin-1-yl]-6-(3-fluoro-5-isopropoxy-phenyl)-N-[(2-oxo-1H-pyridin-3-yl)sulfonyl]pyridine-3-carboxamide], the EC30 entry was “++ (“++” means between 3 uM and 10 uM)”.

As for `Cc1cc(C)c(Oc2nc(-c3cccc(C(F)(F)F)c3)ccc2C(=O)NS(=O)(=O)c2cccc(N)n2)c(C)c1` [Compound 709, N-[(6-amino-2-pyridyl)sulfonyl]-6-[13-(trifluoromethyl)phenyl]-2-(2,4,6-trimethylphenoxy)pyridine-3-carboxamide], the EC30 entry is given as “+++ (“+++” means <3 uM)”.
